Biological target: DNA-PK (Homo sapiens, UniProt P78527)
Assay: SelectScreen Z'LYTE
Type: biochemical
Set-up: purchased Thermo Fisher Scientific (Life Technologies) SelectScreen
Conditions: ATP Km app
Procedure: The in vitro kinase selectivity of NU5455 was determined using the SelectScreen Broad Assay Panel (Thermo Fisher Scientific) involving activity and binding assays (Supplemental Table 1). […] Class IA PI3Ks were measured using the p85α subunit.
Kinase [ATP] % Assay Kinase [ATP] % Assay Kinase [ATP] % Assay Kinase [ATP] % Assay
DNA-PK Km app 98.3 Z LATS2 n/a 4.7 L KIT D820E n/a 1.3 L GSK3B (GSK3 beta) Km app -2.5 Z
PIK3C3 (hVPS34) Km app 85.9 A PRKCZ (PKC zeta) Km app 4.7 Z GRK1 n/a 1.3 L BMPR2 n/a -2.5 L
PIK3C2B (PI3K-C2 beta) 10 28.9 A FGFR1 Km app 4.7 Z BRSK2 n/a 1.2 L CDC42 BPB (MRCKB) Km app -2.5 Z
SNF1LK2 Km app 26.6 Z MINK1 Km app 4.6 Z NUAK1 (ARK5) Km app 1.2 A AMPK (A2/B2/G2) n/a -2.6 L
HCK Km app 18.0 Z CSF1R (FMS) Km app 4.3 Z CDK9/cyclin K n/a 1.0 L PRKG1 Km app -2.7 Z
NEK2 Km app 17.8 Z CSNK1G3 (CK1 gamma 3) Km app 4.2 Z NUAK2 n/a 1.0 L KIT T670E n/a -2.8 L
ALK Km app 17.3 Z STK32C (YANK3) n/a 4.2 L CDK2/cyclin O n/a 0.9 L ERBB4 (HER4) Km app -2.8 Z
FGFR3 K650M n/a 16.5 L STK22D (TSSK1) Km app 4.2 Z CAMKK2 (CaMKK beta) n/a 0.9 L PLK4 n/a -2.8 L
SIK3 n/a 16.1 L TAOK3 (JIK) n/a 4.2 L FGFR3 Km app 0.9 Z GRK7 Km app -3.0 Z
LYN A Km app 15.2 Z RPS6KA4 (MSK2) Km app 4.2 Z ULK2 n/a 0.9 L MAPKAPK2 Km app -3.1 Z
BMPR1B (ALK6) n/a 14.5 L PTK2B (FAK2) Km app 4.2 Z KIT D816V n/a 0.9 L FGFR4 Km app -3.1 Z
INSRR (IRR) Km app 14.1 Z CLK2 Km app 4.1 Z CAMK1 (CaMK1) 10 0.8 A CASK n/a -3.1 L […]

SMILES: CN(C(=O)CN1CCOCC1)c1ccc2sc3c(-c4cccc5c(=O)cc(N6CC7CCC(C6)O7)oc45)cccc3c2c1 [NU5455]
- % inhibition (1 µM): 98%
- inhibition at 1 µM: 98.3%

— publication PMC6934184, “Selective DNA-PKcs inhibition extends the therapeutic index of localized radiotherapy and chemotherapy” (The Journal of Clinical Investigation, 2019)
